The values that follow come from US20240279217A1, “Heterocyclic compounds for the treatment of tuberculosis” (TECNIMEDE - SOCIEDADE TÉCNICO-MEDICINAL, SA, priority 2021, published 2024).

Data set [1] is described as follows: Metabolic stability assay in liver microsomes. It is filed as in vitro ADME. Particulars: human, pH 7.4, 37° C., 60 minutes. The protocol: In an embodiment, metabolic stability assay was carried out. Metabolic stability was assessed by incubating test compounds in 96-well plates in 5 aliquots of 40 μL each (one for each time point) in liver microsomal incubation medium. This medium contained MgCl2 (3.3 mM), NADPH-cofactor system (NADPH (3 mM), glucose-6-phosphate (5.3 mM), glucose-6-phosphate dehydrogenase (0.67 units/ml)) and 0.42 mg of liver microsomal protein per ml in phosphate buffer (100 mM, pH 7.4). Control incubations were performed replacing the NADPH-cofactor system by phosphate buffer. Test compounds (1 μM, final solvent concentration 1.6%) were incubated with microsomes at 37° C. and 100 rpm orbital shaking.
Imipramine and Propranolol were incubated in parallel as reference compounds. Each reaction was performed in duplicate. Five time points over a duration 60 minutes were analysed. The reactions were stopped by adding 12 volumes of 90% acetonitrile in water to incubation aliquots, followed by protein sedimentation by centrifugation. Supernatants were analysed using a Shimadzu VP HPLC system with a reverse phase HPLC column, coupled with tandem mass spectrometer API 3000 (PE Sciex). […] The elimination constant (kel), half-life (t1/2) and intrinsic clearance (Clint) were determined in plot of In(AUC) versus time, using linear regression analysis for each test and reference compound.

In data set [2] the test system is H37Rv M. tuberculosis (strain ATCC 25618). The data set can be described thus: Mycobacterium tuberculosis susceptibility assay REMA (resazurin microtiter assay). It is filed as cell-based.
A further data set relates to HepG2 cell line. The data set can be described thus: In vitro cytotoxicity assay (MTS tetrazolium reduction). It is filed as cell-based. Particulars: HepG2, 48 h. The protocol: In an embodiment, in vitro cytotoxicity assay was carried out. In vitro cytotoxicity assay was performed in HepG2 cell line using a tetrazolium reduction assay for cell viability evaluation (MTS reduction as described by Cory A. et al (Cancer Commun. 1991, 3 (7), 207-212)). The assay was performed in 96-well plates for 48 h at 37° C. and 5% CO2 in incubation medium (low glucose DMEM with Glutamax, 10% FBS, 1% Pen/Strep and DMSO). Cells were exposed to 8 different compound concentrations in successive dilutions (usually, base 2), plus a positive control (a compound in a concentration known to decrease cell viability above 50%) and a negative control (incubation medium). Six replicate wells were assayed for each condition. Compound stock solutions were prepared in DMSO at 20 mM, whenever possible, filter sterilized, aliquoted and stored at −20° C. The maximum compound concentrations tested depend on its solubility in incubation medium, and on the maximum DMSO percentage allowable without loss of cell viability. At the end of the incubation period, tetrazolium reagent was added (CellTiter 96′ AQueous Solution from Promega); cells were incubated for another 3 hours in order to promote tetrazolium reduction to formazan by viable cells. The amount of soluble formazan produced was evaluated by 490 nm absorbance reading in a spectrophotometer plate reader. […] Whenever possible, IC50 was calculated as the concentration of compound that reduces cell viability by 50%.

A short description of data set [3]: pKa determination by potentiometric titration. It is filed as physicochemical. Particulars: acidified MeOH-water (1:4) solution of NaCl, 25° C. The protocol:
In an embodiment, pKa determination assay was carried out. The tendency of a compound to donate a proton is measured as its acid ionization constant (dissociation constant), or Ka. A more practical scale of representing acidity is pKa which is the negative logarithm of the Ka (pKa=−log Ka). The pKa determinations of the test compounds and 3 reference compounds were assessed by potentiometric titration, in accordance with the technical protocols for pKa measurement provided by Pion Inc. and Sirius Analytical Inc. Briefly, compounds pKa were determined by pH-metric method based on potentiometric acid-base titration at 25° C. The test and reference compounds were dissolved in acidified MeOH-water (1:4) solution of NaCl (150 mM, pH 2) and slowly titrated with 10 mM NaOH MeOH-water (1:4) solution. The recorded pH of the solution as a function of NaOH volume used during the titration were used to construct the titration curve. Titration of acidified NaCl solution in absence of any compound was used for blank plotting. Buffering capacity was calculated in each point of titration curve as the ratio of the NaOH flow (constant) to the pH rise velocity. The pKa value is determined from resulting plot of buffering capacity versus pH as the maximum of buffering capacity. pH-Metric method allows to measure pKa's in range between 2 and 12. […]

In brackets after ≈: the same amount, converted by molar mass.

In data set [1], `COc1cccc2ccc(N3CCC(c4nc(-c5ccc(OC(F)(F)F)cc5)no4)CC3)nc12` [Compound 3, 5-(1-(8-methoxyquinolin-2-yl)piperidin-4-yl)-3-(4-(trifluoromethoxy)phenyl)-1,2,4-oxadiazole] returned a half-life at 1 μM of 3.03 h and a microsomal CLint at 1 μM of 9.2 µL/min/mg. Also, the MIC in data set [2] (Mycobacterium tuberculosis, 144 h, read-out: REMA MIC) lay within 7.8 to 15.6 µM (≈ 3.67 to 7.34 µg/mL). For the same compound, the “REMA MIC” value in data set [2] (Table 2, MTB growth REMA, H37Rv, Middlebrook 7H9, 6 days at 37° C.) is listed as “+++ (7.8-15.6)”. Further, in the data set with HepG2 cell line (Homo sapiens), the IC50 was greater than 100 µM. The compound further registered an IC50 with HepG2 cell line (Table 2, cytotoxicity, MTS) greater than 100 µM. In addition, in data set [3], the pKa is 3.9.
